Among the data in patent US10730884B2, “Substituted indole compound derivatives as dengue viral replication inhibitors” (Janssen Pharmaceuticals, Inc., priority 2016, dated 2020) are CC50, EC50 and SI values, retold here.

One data set in a line: in vitro. As to conditions: African green monkey.
For a further data set, the system named is DENV-2 16681 strain. The data set can be described thus: DENV-2 antiviral assay (eGFP-labeled virus, Vero cells). The class given is cell-based, Dengue virus. As to conditions: for EC50: DENV-2 16681 eGFP, Vero cells, MOI 0.5, 3 days; for SI: SI=CC50/EC50, DENV-2 antiviral assay. The protocol:
The antiviral activity of all the compounds of the invention was tested against the DENV-2 16681 strain which was labeled with enhanced green fluorescent protein (eGPF). The culture medium consists of minimal essential medium supplemented with 2% of heat-inactivated fetal calf serum, 0.04% gentamycin (50 mg/mL) and 2 mM of L-glutamine. Vero cells, obtained from ECACC, were suspended in culture medium and 25 μL was added to 384-well plates (2500 cells/well), which already contain the antiviral compounds. Typically, these plates contain a 5-fold serial dilution of 9 dilution steps of the test compound at 200 times the final concentration in 100% DMSO (200 nL). […] Finally, each plate contains wells which are assigned as virus controls (containing cells and virus in the absence of compound), cell controls (containing cells in the absence of virus and compound) and medium controls (containing medium in the absence of cells, virus and compounds). To the wells assigned as medium control, 25 μL of culture medium was added instead of Vero cells. Once the cells were added to the plates, the plates were incubated for 30 minutes at room temperature to allow the cells to distribute evenly within the wells. Next, the plates were incubated in a fully humidified incubator (37° C., 5% CO2) until the next day. Then, DENV-2 strain 16681, labeled with eGFP, was added at a multiplicity of infection (MOI) of 0.5. Therefore, 15 μL of virus suspension was added to all the wells containing test compound and to the wells assigned as virus control. In parallel, 15 μL of culture medium was added to the medium and cell controls. Next, the plates were incubated for 3 days in a fully humidified incubator (37° C., 5% CO2). At the day of the read out, the eGFP fluorescence was measured using an automated fluorescence microscope at 488 nm (blue laser). Using an in-house LIMS system, inhibition dose response curves for each compound were calculated and the half maximal effective concentration (EC50) was determined. Therefore, the percent inhibition (I) for every test concentration is calculated using the following formula: I=100*([…])/(SVC−SCC); ST, SCC and SVC are the amount of eGFP signal in the test compound, cell control and virus control wells, respectively. The EC50 represents the concentration of a compound at which the virus replication is inhibited with 50%, as measured by a 50% reduction of the eGFP fluorescent intensity compared to the virus control. The EC50 is calculated using linear interpolation (Table 1).

Another data set deals with DENV-3 strain H87. Description: Tetravalent RT-qPCR assay, serotype 3. The class given is cell-based, Dengue virus. As to conditions: for EC50: RT-qPCR serotype 3 H87, Protocol A, Vero cells, day 3, read-out: EC50; for SI: RT-qPCR serotype 3 H87. On the procedure:
(§1) The antiviral activity of the compounds of the invention was tested against DENV-1 strain TC974#666 (NCPV), DENV-2 strain 16681, DENV-3 strain H87 (NCPV) and DENV-4 strain H241 (NCPV) in a RT-qPCR assay. Therefore, Vero cells were infected with either DENV-1, or -2, or -3, or -4 in the presence or absence of test compounds. At day 3 post-infection, the cells were lysed and cell lysates were used to prepare cDNA of both a viral target (the 3′UTR of DENV; Table 2) and a cellular reference gene (β-actin, Table 2). Subsequently, a duplex real time PCR was performed on a Lightcycler480 instrument. The generated Cp value is inversely proportional to the amount of RNA expression of these targets. Inhibition of DENV replication by a test compound result in a shift of Cp's for the 3′UTR gene. On the other hand, if a test compound is toxic to the cells, a similar effect on β-actin expression will be observed. The comparative ΔΔCp method is used to calculate EC50, which is based on the relative gene expression of the target gene (3′UTR) normalized with the cellular housekeeping gene (β-actin). In addition, CC50 values are determined based on the Cp values acquired for the housekeeping gene β-actin.
(§2) The culture medium consisted of minimal essential medium supplemented with 2% of heat-inactivated fetal calf serum, 0.04% gentamycin (50 mg/mL) and 2 mM of L-glutamine. Vero cells, obtained from ECACC, were suspended in culture medium and 75 μL/well was added in 96-well plates (10000 cells/well), which already contain the antiviral compounds. […] In addition, each plate contains wells which are assigned as virus controls (containing cells and virus in the absence of compound) and cell controls (containing cells in the absence of virus and compound). Once the cells were added in the plates, the plates were incubated in a fully humidified incubator (37° C., 5% CO2) until the next day. Dengue viruses serotype-1, 2, 3 and 4 were diluted in order to obtain a Cp of ˜22-24 in the assay. Therefore, 25 μL of virus suspension was added to all the wells containing test compound and to the wells assigned as virus control. In parallel, 25 μL of culture medium was added to the cell controls. Next, the plates were incubated for 3 days in a fully humidified incubator (37° C., 5% CO2). After 3 days, the supernatant was removed from the wells and the cells were washed twice with ice-cold PBS (˜100 μL). The cell pellets within the 96-well plates were stored at −80° C. for at least 1 day. Next, RNA was extracted using the Cells-to-CT™ lysis kit, according to the manufacturer's guideline (Life Technologies). The cell lysates can be stored at −80° C. or immediately used in the reverse transcription step.
(§3) In preparation of the reverse transcription step, mix A (table 3A) was prepared and 7.57 μL/well was dispensed in a 96-well plate. After addition of 5 μL of the cell lysates, a five minute denaturation step at 75° C. was performed (table 3B). Afterwards, 7.43 μL of mix B was added (table 3C) and the reverse transcription step was initiated (table 3D) to generate cDNA.
(§4) Finally, a RT-qPCR mix was prepared, mix C (table 4A), and 22.02 μL/well was dispensed in 96-well LightCycler qPCR plates to which 3 μL of cDNA was added and the qPCR was performed according to the conditions in table 4B on a LightCycler 480.
(§5) Using the LightCycler software and an in-house LIMS system, dose response curves for each compound were calculated and the half maximal effective concentration (EC50) and the half maximal cytotoxic concentration (CC50) were determined (Tables 5-8).

The next data set deals with DENV-2 strain 16681. The data set can be described thus: Tetravalent RT-qPCR assay, serotype 2. The class given is cell-based, Dengue virus. The settings on record: for EC50: RT-qPCR serotype 2 16681, Protocol A, Vero cells, day 3; for SI: RT-qPCR serotype 2 16681. On the procedure: as §1, §2, §3, §4, §5
The subject of another data set is DENV-4 strain H241. Description: Tetravalent RT-qPCR assay, serotype 4. The class given is cell-based, Dengue virus. The settings on record: for EC50: RT-qPCR serotype 4 H241, Protocol A, Vero cells, day 3; for SI: RT-qPCR serotype 4 H241. The protocol: as §1, §2, §3, §4, §5
The next data set has as its system DENV-1 strain TC974#666. Description: Tetravalent RT-qPCR assay, serotype 1. The class given is cell-based, Dengue virus. As to conditions: for EC50: RT-qPCR serotype 1 TC974#666, Protocol A, Vero cells, day 3, read-out: EC50; for SI: RT-qPCR serotype 1 TC974#666. On the procedure: as §1, §2, §3, §4, §5
Setting [1] is: Dengue virus, DENV2, Vero, 72 h.
Setting [2] is: Dengue virus, DENV3, Vero, 72 h.
Where [3] appears, read: Dengue virus, DENV4, Vero, 72 h.
The mark [4] stands for this setting: Dengue virus, DENV1, Vero, 72 h.

Like-named read-outs stand apart in the source and are kept apart here.

In “in vitro”, `COc1cc(NC(C(=O)c2c[nH]c3cc(OC(F)(F)F)c(C)cc23)c2ccc(F)cc2OC)cc(OCCO)c1` (racemic) [Compound 4, 2-(4-fluoro-2-methoxyphenyl)-2-((3-(2-hydroxyethoxy)-5-methoxyphenyl)amino)-1-(5-methyl-6-(trifluoromethoxy)-1H-indol-3-yl)ethanone] registered a CC50 of 3.9 µM. For the same compound, the EC50 (as a rule, the concentration giving half of the maximal effect) with DENV-2 16681 strain (setting [1]) is 0.011 µM. Moreover, the SI in the data set with DENV-2 16681 strain came to 359.

Regarding `CCOc1cc2[nH]cc(C(=O)C(Nc3cc(OC)cc(OCCO)c3)c3ccc(F)cc3OC)c2cc1C` (racemic) [Compound 6, 1-(6-ethoxy-5-methyl-1H-indol-3-yl)-2-(4-fluoro-2-methoxyphenyl)-2-((3-(2-hydroxyethoxy)-5-methoxyphenyl)amino)ethanone], in the data set “in vitro”, the CC50 is 5.7 µM. In addition, the EC50 in the data set with DENV-2 16681 strain (setting [1]) is 0.0018 µM. The same compound gave an SI in the data set with DENV-2 16681 strain of 3160.

For `COc1cc(NC(C(=O)c2c[nH]c3cc(F)ccc23)c2ccc(Cl)cc2OC)cc(OCCOP(=O)(O)O)c1` (racemic) [Compound 13-P, 2-(3-((1-(4-chloro-2-methoxyphenyl)-2-(6-fluoro-1H-indol-3-yl)-2-oxoethyl)amino)-5-methoxyphenoxy)ethyl dihydrogen phosphate], the CC50 in “in vitro” turned out to be 11 µM. Further, the midpoint of the response in the data set with DENV-2 16681 strain (setting [1]), the EC50, lay at 0.0021 µM. This compound displayed an SI in the data set with DENV-2 16681 strain of 5210.

With `COc1cc(NC(C(=O)c2c[nH]c3cc(F)ccc23)c2ccc(Cl)cc2OC)cc(OCCOP(=O)(O)O)c1` (single isomer, unassigned) [13A-P^b], the EC50 in the data set with DENV-3 strain H87 (setting [2]) is 0.042 µM; in the data set on DENV-3 strain H87 (listed as 13A-P^c), 0.028 µM; in the data set with DENV-2 strain 16681 it was 0.00097 µM; in the data set with DENV-2 strain 16681 (listed as 13A-P^c), 0.00044 µM; in the data set on DENV-2 16681 strain, 0.00048 µM; in the data set with DENV-2 16681 strain (listed as 13A-P^c), 0.00094 µM. The EC50 in the data set with DENV-4 strain H241 (setting [3]) is 0.25 µM; with DENV-4 strain H241 (listed as 13A-P^c) it was 0.23 µM; in the data set on DENV-1 strain TC974#666 (setting [4]), 0.0042 µM; in the data set with DENV-1 strain TC974#666 (listed as 13A-P^c), 0.0044 µM. This compound came in with a CC50 in “in vitro” of 11 µM.

Compound `COc1cc(NC(C(=O)c2c[nH]c3cc(OC(F)(F)F)c(C)cc23)c2ccc(F)cc2OC)cc(OCCO)c1` (single isomer, unassigned) [Compound 4A] yielded a CC50 in “in vitro” of 3.4 µM. In the data set on DENV-2 16681 strain, this compound registered an EC50 of 0.63 µM and an SI of 5.4.

For `COc1cc(NC(C(=O)c2c[nH]c3cc4c(cc23)CCO4)c2ccc(F)cc2OC)cc(OCCO)c1` (single isomer, unassigned) [Compound 7A], the EC50 was found to be 0.063 µM in the data set on DENV-3 strain H87 (setting [2]); 0.0016 µM in the data set on DENV-2 strain 16681 (setting [1]); 0.001 µM with DENV-2 16681 strain; 0.38 µM in the data set with DENV-4 strain H241 (setting [3]); 0.0078 µM in the data set on DENV-1 strain TC974#666 (setting [4]). Moreover, the SI with DENV-3 strain H87 was 76; in the data set on DENV-2 strain 16681, 5930; with DENV-2 16681 strain, 13700; in the data set with DENV-4 strain H241 it was 12; with DENV-1 strain TC974#666, 713. Further, the CC50 in the data set “in vitro” was 10 µM.

Consider `COc1cc(NC(C(=O)c2c[nH]c3c4c(ccc23)OCC4)c2ccc(F)cc2OC)cc(OCCO)c1` (single isomer, unassigned) [Compound 8A], for which the EC50 in the data set on DENV-3 strain H87 (setting [2]) was found to be 0.15 µM; with DENV-2 strain 16681 (setting [1]) it was 0.0081 µM; with DENV-2 16681 strain, 0.0043 µM; with DENV-4 strain H241 (setting [3]), 0.71 µM; with DENV-1 strain TC974#666 (setting [4]) it was 0.02 µM. In addition, the SI in the data set on DENV-3 strain H87 is given as 64; in the data set with DENV-2 strain 16681, 1530; in the data set on DENV-2 16681 strain it was 4240; in the data set with DENV-4 strain H241 it was 20; in the data set on DENV-1 strain TC974#666, 560. This compound yielded a CC50 in the data set “in vitro” of 12 µM.

In “in vitro”, `COc1cc(NC(C(=O)c2c[nH]c3cc(F)c(C)cc23)c2ccc(Cl)cc2OC)cc(OCCO)c1` (single isomer, unassigned) [Compound 9A] yielded a CC50 of 3.7 µM. For the same compound, in the data set with DENV-2 16681 strain, the midpoint of the response, the EC50, lay at 0.052 µM and the SI is given as 70.

In the case of `COc1cc(NC(C(=O)c2c[nH]c3cc4c(cc23)CCO4)c2ccc(Cl)cc2OC)cc(OCCO)c1` (single isomer, unassigned) [Compound 10A], the CC50 in “in vitro” stood at 4.9 µM. In the data set with DENV-2 16681 strain, the EC50 amounted to 0.11 µM and the SI was 44.

For the compound `COc1cc(NC(C(=O)c2c[nH]c3c4c(ccc23)OCC4)c2ccc(Cl)cc2OC)cc(OCCO)c1` (single isomer, unassigned) [Compound 11A], the EC50 in the data set with DENV-3 strain H87 (setting [2]) came to 0.028 µM; in the data set with DENV-2 strain 16681 (setting [1]), 0.0019 µM; with DENV-2 16681 strain, 0.00088 µM; in the data set on DENV-4 strain H241 (setting [3]), 0.27 µM; with DENV-1 strain TC974#666 (setting [4]) it was 0.0085 µM. Besides, the SI is reported as 359 with DENV-3 strain H87; 2490 in the data set on DENV-2 strain 16681; 7460 in the data set on DENV-2 16681 strain; over 9.1 with DENV-4 strain H241; 1350 in the data set with DENV-1 strain TC974#666. In the data set “in vitro”, the CC50 came to 6 µM.

Regarding `COc1cc(NC(C(=O)c2c[nH]c3cc(OC)c(C)c(F)c23)c2ccc(Cl)cc2OC)cc(OCCO)c1` (single isomer, unassigned) [Compound 12A], in “in vitro”, the CC50 is 5.6 µM. For the same compound, in the data set on DENV-2 16681 strain, the EC50 stood at 0.006 µM and the SI amounted to 1200.
